Results on one compound are retold here after patent publication US20070219275A1, “Use of Benzophenone Uv Filters for Preventing Tanning” (priority 2004, published 2007).

The test system of this test is skin pigmentation on the back of Asian volunteers. The test is described as follows: Tanning prevention: skin color (L*a*b*, Minolta chromameter) on the back of volunteers irradiated with simulated solar light. The class given is in vivo, human. As to conditions: day cream with 5% compound. How it is done: Skin color was measured in the L*a*b* colour by means of a Minolta CM-508i®) Chromameter).
10 Volunteers of originating from S-E-Asia and with a skinlightness L* between 65.4 and 40.8 were recruited following COLIPA-Guidelines.
The influence of extensive sun exposure on skin pigmentation and the protective effects of day care cosmetics were directly measured on the back of volunteers:
40 and 20 minutes prior to irradiation volunteers treated on the back with 2 mg/cm^2 of cream formulation.
Then tey were irradiated with simulated solar light for 12 weeks, 3-times a week with a dose≦1 MED (Minimal erythema dose; MED adjusted monthly).
The skin of the volunteers was assessed prior to the test and monthly prior to cream application and irradiation.
The influence of extensive sun exposure on skin pigmentation and the protective effects of a day cream containing
was directly measured on the back of Asian volunteers.
The skin of the volunteers was assessed prior to the test and monthly prior to cream application and irradiation for skin color by a Minolta Colorimeter 508i.

[1] abbreviates: After 4 weeks, irradiation 3x/week <1 MED.
[2] abbreviates: After 8 weeks, irradiation 3x/week <1 MED.
Where [3] appears, read: After 12 weeks, irradiation 3x/week <1 MED.
Setting [4] is: Start, 2 mg/cm^2, 10 Asian volunteers.

As for `CCCCCCOC(=O)c1ccccc1C(=O)c1ccc(N(CC)CC)cc1O` [compound of formula (3)], the “L* (skin color)” value reads like this: under setting [1], 50.5; under setting [2], 48.8; under setting [3], 47.7; under setting [4], 53.3. Also, the “a* (skin color)” value under setting [1] is listed as 23.1, the “a* (skin color)” value under setting [2] is reported as 22.6, the “a* (skin color)” value under setting [3] is listed as 21.5 and the “a* (skin color)” value under setting [4] is listed as 22.5. The “b* (skin color)” value under setting [1] was 22.6, the “b* (skin color)” value under setting [2] is 23.3, the “b* (skin color)” value under setting [3] is on record as 24.6 and the “b* (skin color)” value under setting [4] is reported as 22.5.
